Assay results as given in publication PMC12597212, “Biaryl Phosphate‐Based Inhibitors of the Transcription Factor STAT4” (Chemmedchem, 2025).

Experiments:
STAT1 = target: T1, STAT1 (Homo sapiens, UniProt P42224); assay: Competitive fluorescence polarization (FP) assay, STAT1; assay type: binding; settings: for IC50: 80-92 nM STAT1, 10 nM tracer peptide; for Ki: Ki calculated from IC50, mean ± SD, n = 3
T1 sequence (P42224 1-750): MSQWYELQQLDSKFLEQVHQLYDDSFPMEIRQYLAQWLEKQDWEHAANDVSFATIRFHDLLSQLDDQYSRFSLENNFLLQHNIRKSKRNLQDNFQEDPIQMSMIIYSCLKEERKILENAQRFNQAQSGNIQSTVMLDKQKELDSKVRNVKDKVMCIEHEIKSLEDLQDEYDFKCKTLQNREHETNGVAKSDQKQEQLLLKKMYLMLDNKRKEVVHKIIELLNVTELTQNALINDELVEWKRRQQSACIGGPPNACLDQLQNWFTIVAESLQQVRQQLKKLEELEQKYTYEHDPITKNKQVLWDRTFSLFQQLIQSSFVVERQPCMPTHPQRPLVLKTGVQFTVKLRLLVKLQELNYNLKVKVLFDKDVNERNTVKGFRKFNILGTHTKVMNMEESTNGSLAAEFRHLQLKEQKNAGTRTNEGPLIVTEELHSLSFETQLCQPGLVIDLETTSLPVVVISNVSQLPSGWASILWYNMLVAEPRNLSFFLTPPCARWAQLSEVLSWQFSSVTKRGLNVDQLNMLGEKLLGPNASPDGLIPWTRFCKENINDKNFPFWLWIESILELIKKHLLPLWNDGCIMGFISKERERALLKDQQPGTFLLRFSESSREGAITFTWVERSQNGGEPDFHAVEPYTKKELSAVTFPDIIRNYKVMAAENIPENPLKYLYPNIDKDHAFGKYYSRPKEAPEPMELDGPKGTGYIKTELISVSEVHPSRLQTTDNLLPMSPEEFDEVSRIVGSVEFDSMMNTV
Description: (§1) Fluorescence polarization assays
(§2) STAT4; 5-carboxyfluorescein-GpYDKPHVL for STAT1; 5-carboxyfluorescein-GpYLPQTV- […]
(§3) fluorescent-labeled peptide was added. Samples were transferred to 384-well microtiter plates […]
(§4) Experiments were carried out in triplicate. Percent binding was calculated based on a logarithmic curve fit using OriginPro 8G software. Conversion of IC50 values to Ki-values was […]
(§5) Error bars represent standard deviations. […]
(§6) Experiments were carried out in triplicate. […]

STAT6 = target: T2, STAT6 (Homo sapiens, UniProt P42226); assay: Competitive fluorescence polarization (FP) assay, STAT6; assay type: binding; settings: for IC50: 106 nM STAT6, 10 nM tracer peptide; for Ki: Ki calculated from IC50, mean ± SD, n = 3
T2 sequence (P42226 1-847): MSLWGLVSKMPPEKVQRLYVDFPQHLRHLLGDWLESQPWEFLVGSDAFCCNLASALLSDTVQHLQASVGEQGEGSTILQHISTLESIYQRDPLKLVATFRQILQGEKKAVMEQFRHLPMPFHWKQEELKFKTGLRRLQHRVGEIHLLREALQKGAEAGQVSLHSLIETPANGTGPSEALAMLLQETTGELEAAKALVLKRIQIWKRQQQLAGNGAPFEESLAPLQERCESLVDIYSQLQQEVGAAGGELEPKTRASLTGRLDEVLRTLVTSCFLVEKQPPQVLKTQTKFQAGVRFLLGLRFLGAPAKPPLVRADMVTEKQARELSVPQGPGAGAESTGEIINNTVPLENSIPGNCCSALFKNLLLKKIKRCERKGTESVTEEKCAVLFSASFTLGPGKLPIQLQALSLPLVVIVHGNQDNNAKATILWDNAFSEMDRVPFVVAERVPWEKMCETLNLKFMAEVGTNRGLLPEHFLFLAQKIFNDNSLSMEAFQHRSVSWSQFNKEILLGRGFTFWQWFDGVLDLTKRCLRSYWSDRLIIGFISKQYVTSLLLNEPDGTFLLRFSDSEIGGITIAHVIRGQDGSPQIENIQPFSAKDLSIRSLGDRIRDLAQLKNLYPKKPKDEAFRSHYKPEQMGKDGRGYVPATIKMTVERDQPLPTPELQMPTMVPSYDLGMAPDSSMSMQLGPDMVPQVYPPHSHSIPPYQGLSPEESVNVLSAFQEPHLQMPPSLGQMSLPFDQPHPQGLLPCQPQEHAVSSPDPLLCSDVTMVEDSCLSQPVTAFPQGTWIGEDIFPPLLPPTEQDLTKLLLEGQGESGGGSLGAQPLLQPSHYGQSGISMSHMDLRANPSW
Description: as §1, §2, §3, §4, §5, §6

STAT4 = target: T3, STAT4 (Homo sapiens, UniProt Q14765); assay: Isothermal titration calorimetry (ITC), binding to STAT4; settings: 10 µM STAT4, 100 µM ligand, 25 °C, 10 mM Tris pH 8.0, 50 mM NaCl, 1 % DMSO; n = 3
T3 construct: 6xHis; made in house
T3 sequence (Q14765 1-748): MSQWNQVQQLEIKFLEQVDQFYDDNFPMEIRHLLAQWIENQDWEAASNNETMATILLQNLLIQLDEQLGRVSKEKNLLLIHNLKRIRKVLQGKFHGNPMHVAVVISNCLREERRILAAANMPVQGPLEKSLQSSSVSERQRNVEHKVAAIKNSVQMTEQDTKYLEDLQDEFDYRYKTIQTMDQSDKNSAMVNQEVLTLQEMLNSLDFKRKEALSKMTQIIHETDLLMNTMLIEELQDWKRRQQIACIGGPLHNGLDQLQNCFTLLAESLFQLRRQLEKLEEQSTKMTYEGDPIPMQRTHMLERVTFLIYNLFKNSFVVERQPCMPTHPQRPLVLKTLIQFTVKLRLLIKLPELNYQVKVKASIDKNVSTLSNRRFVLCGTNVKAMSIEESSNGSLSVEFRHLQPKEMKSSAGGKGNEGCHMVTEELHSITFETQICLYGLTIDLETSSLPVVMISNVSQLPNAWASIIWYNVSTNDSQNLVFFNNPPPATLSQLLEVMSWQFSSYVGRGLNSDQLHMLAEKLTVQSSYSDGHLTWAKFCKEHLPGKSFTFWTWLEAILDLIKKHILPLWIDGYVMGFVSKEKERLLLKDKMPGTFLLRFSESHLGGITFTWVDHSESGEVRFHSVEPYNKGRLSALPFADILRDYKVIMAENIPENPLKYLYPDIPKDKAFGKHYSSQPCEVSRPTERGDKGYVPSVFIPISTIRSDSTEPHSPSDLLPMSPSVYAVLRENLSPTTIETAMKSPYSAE
Description: as §3, §4
Error bars represent standard deviations.
Isothermal Titration Calorimetry […]
dialysis tubing with a 50 kDa cut-off. ITC experiments were performed using a VP-ITC Micro […]
ITC buffer (final ligand concentration: 100 µM). 1 % (v/v) DMSO was added to the buffers […]
detection of dilution heat. Proteins were degassed before the experiments using a ThermoVac sample degassing station. […]
site binding model was used for data fitting. Figures were generated using GUSSI. Experiments were carried out in triplicate.
General synthetic methods
Method 1: Suzuki coupling […]
three times with ethyl acetate. The combined organic layers were washed with water, after which they were dried over Na2SO4 and filtered. The volatiles were removed under reduced

Row | Structure (SMILES) | IC50 (STAT1) | Ki (STAT1) | IC50 (STAT6) | Ki (STAT6) | Kd (STAT4)
1 | O=P(O)(O)Oc1ccc2c(c1)oc1ccccc12 [compound 12] | 34.3 µM | 16 ± 1 µM | 53 µM | 26 ± 4 µM | 
2 | O=P(O)(O)Oc1ccc2c(c1)Cc1ccccc1-2 [compound 11] | 14.3 µM | 6.5 ± 0.2 µM | 23 µM | 12 ± 1 µM | 
3 | O=P(O)(O)Oc1ccc(-c2nccs2)cc1 [8c] | 83 µM | 38 ± 3 µM | 112 µM | 55 ± 1 µM | 
4 | O=P(O)(O)Oc1ccc(-c2cccs2)cc1 [8b] | 19.5 µM | 8.9 ± 0.5 µM | 19 µM | 9.4 ± 0.3 µM | 
5 | Cc1cc(-c2ccc(OP(=O)(O)O)c(F)c2)cs1 [8f] | 9 µM | 4.4 ± 0.4 µM | 34 µM | 17 ± 2 µM | 3.1 ± 1 µM
6 | O=P(O)(O)Oc1ccc(-c2ccsc2)cc1 [8a] | 20.2 µM | 9.2 ± 1 µM | 15.8 µM | 7.8 ± 0.7 µM | 
